Reference: US20230093073A1, “METHODS AND COMPOSITIONS FOR COMMUNITY-BASED SCREENING OF POLYMICROBIAL INFECTIONS” (REGENTS OF THE UNIVERSITY OF MINNESOTA, priority 2020, published 2023)

Assays:
[1] = test system: P. aeruginosa; assay: Antibiotic susceptibility testing (MIC) of P. aeruginosa isolates from CF sputum in LB; assay type: cell-based, Pseudomonas aeruginosa; details: isolates from adult CF sputum, nutrient-rich LB, aerobic, 37° C., 24 h
Description: (§1) To further test this idea under clinically relevant conditions, sputum was collected from adult CF patients and isolated P. aeruginosa from each sample (FIG. 1B). Using a panel of widely used CF antibiotics (tobramycin, aztreonam, levofloxacin, piperacillin-tazobactam) and others lacking conventional activity against P. aeruginosa (trimethoprim-sulfamethoxazole, metronidazole), MICs for each isolate were determined under nutrient-rich conditions (akin to standard AST procedures). Concurrently, enrichment culturing was performed to isolate anaerobic mucin-degrading bacteria from each sample (10) and antibiotic MICs were similarly determined. Finally, small aliquots of remaining sputa were diluted in buffer and split between culture tubes containing mucin as the sole carbon source, 1% agarose, and one of the antibiotics listed above. Using these cultures in which P. aeruginosa and anaerobic mucin-degraders were co-dependent on mucin utilization, how co-operative growth affected antibiotic sensitivity relative to independent culture was interrogated.
Pseudomonas aeruginosa isolation. 100 μL of sputum was streaked onto Pseudomonas isolation agar and incubated at 37° C. for 72 hours. A single isolate from each sample was screened by PCR to confirm identity and stored in 30% glycerol at −80° C.
Antibiotic susceptibility testing. For anaerobic AST, 5 μL of enrichment culture was added to each well of microtiter plate containing MMM supplemented with gradients of seven antibiotics (aztreonam 0-500 μg/mL; doxycycline, 0-25 μg/mL; levofloxacin, 0-25 μg/mL; metronidazole, 0-25 μg/mL; piperacillin/tazobactam, 0-25 μg/mL; tobramycin, 0-500 μg/mL; trimethoprim/sulfamethoxazole, 0-25 μg/mL). Plates were wrapped in parafilm and incubated anaerobically at 37° C. for 72 h. For P. aeruginosa, isolates were grown in lysogeny broth (LB) to an OD600 of 0.5. 5 μL was then added to a similar plate containing LB as the base medium and incubated aerobically at 37° C. for 24 h. Plates were resuspended by pipetting and read spectrophotometrically at OD600 using a BioTek Synergy plate reader. MICs were determined based on the antibiotic concentration required to achieve a 90% reduction in culture density relative to antibiotic-free controls.

[2] = test system: sputum bacterial communities; assay: Mucin co-culture of CF sputum bacterial communities, community growth by 16S rRNA gene qPCR; assay type: cell-based; details: for whether presence of at least one antibiotic-susceptible population predicts community failure in co-culture: sputum co-culture vs individual MICs of P. aeruginosa and anaerobes; for effect on co-operative community growth (16S rRNA gene copies relative to untreated control, FIG. 2C): sputum co-culture, mucin sole carbon source, 1% agarose, 72 h, one fixed concentration per antibiotic
Description: as §1
It was assessed whether co-operative community growth (see FIG. 1A) would affect antibiotic susceptibility. Specifically, we hypothesized that the sensitivity of the overall sputum bacterial community would be set by the least tolerant among P. aeruginosa and anaerobic subpopulations. To test this hypothesis, total 16S rRNA gene copy number was used to quantify community growth in response to each antibiotic relative to untreated controls (FIG. 2C).
Co-culture. Under anaerobic conditions, 200 μL of homogenized sputum was placed into one of eight tubes to which a pre-determined concentration of each antibiotic was added (aztreonam, 100 μg/mL; doxycycline, 6.5 μg/mL; levofloxacin, 6.5 μg/mL; metronidazole, 3.5 μg/mL; piperacillin/tazobactam, 6.5 μg/mL; tobramycin, 500 μg/mL; trimethoprim/sulfamethoxazole, 3.5 μg/mL). […] 200 μL of molten 2% low melting point agarose in PBS was added to each tube and homogenized by pipetting. Each mixture was then added to 0.5 mL Pyrex culture tubes forming a gel upon cooling. Upon removal from the anaerobic chamber, tubes were incubated at 37° C. for 72 h and frozen at −80° C.
DNA extraction. Agar plugs were removed from the culture tubes, transferred to a Matrix E Lysing Tubes (MP Biomedicals) and two volumes of lysis buffer were added. Tubes were vortexed on a bead beater for 2×30 s, followed by centrifugation at 9,500×g for 1 min. Supernatant was transferred to a new tube, incubated at 75° C. for 10 min and returned to room temperature. Lysozyme and RNAse A were then added to final concentrations of 0.2 mg/mL and 50 μg/mL, respectively, and incubated for 1 h at 37° C. […], of 10% SDS and proteinase K (2 mg/mL) were added and incubated overnight at 55° C.
DNA was extracted by adding one volume of phenol:chloroform:iosoamyl alcohol (25:24:1) and vortexing to emulsify. Samples were centrifuged at 21,000×g for 20 min and the upper aqueous layer transferred to a new tube. One volume of chloroform:IAA was then added followed by centrifugation at 21,000×g for 15 min. The upper layer was transferred to a new tube. 3M sodium acetate (pH 5.2) was added and mixed gently, followed by the addition of 1 volume of isopropanol and 3 μL GlycoBlue. Samples were centrifuged for 20 min at 21,000×g and supernatant removed. Pellets were washed using 80% ethanol, air dried for ˜30 min and resuspended in 10 mM Tris (pH 8) prior to storage at −80° C.
qPCR. Community growth was estimated by quantifying 16S rRNA gene copies from co-culture DNA.

[3] = test system: P. aeruginosa and anaerobic bacteria capable of degrading mucins; details: cited from earlier work
[4] = test system: anaerobic mucin-degrading bacteria; assay: Anaerobic antibiotic susceptibility testing (MIC) of enrichment cultures from CF sputum in minimal mucin medium; assay type: cell-based; details: MMM, 37° C., 72 h
Description: as §1
Anaerobic enrichment. […]
Antibiotic susceptibility testing. […] Plates were resuspended by pipetting and read spectrophotometrically at OD600 using a BioTek Synergy plate reader. MICs were determined based on the antibiotic concentration required to achieve a 90% reduction in culture density relative to antibiotic-free controls.

Row | Compound | efficacy against P. aeruginosa isolates (MICs, FIG. 2A) [1] | whether presence of at least one antibiotic-susceptible population predicts community failure in co-culture [2] | effect on co-operative community growth (16S rRNA gene copies relative to untreated control, FIG. 2C) [2] | efficacy against anaerobic enrichments (MICs, FIG. 2B) [4] | further results
1 | trimethoprim-sulfamethoxazole | some isolates were resistant | largely predictive of community failure | variable effects | – | community growth, patients 3 and 4 ([2]; patients 3 and 4, antibiotic predicted ineffective from individual MICs, T/S 3.5 μg/mL): surprisingly inhibited
2 | Cc1ncc([N+](=O)[O-])n1CCO [metronidazole] | ineffective | – | striking effect on co-operative cultures | – | sputum community growth, patient 5 ([2]; patient 5, both subpopulations independently resistant, metronidazole 3.5 μg/mL): robust
3 | CC1(C)S[C@@H]2[C@H](NC(=O)[C@H](N)c3ccccc3)C(=O)N2[C@H]1C(=O)O [ampicillin] | – | – | – | – | P. aeruginosa growth in co-culture with mucin-degrading anaerobes ([3]; co-culture on mucins as sole carbon source, inhibition of anaerobic subpopulation): constrained P. aeruginosa growth; resistance of P. aeruginosa determined by standard AST ([3]; standard AST, monoculture): high intrinsic resistance
4 | NC[C@H]1O[C@H](O[C@H]2[C@H](O)[C@@H](O[C@H]3O[C@H](CO)[C@@H](O)[C@H](N)[C@H]3O)[C@H](N)C[C@@H]2N)[C@H](N)C[C@@H]1O [tobramycin] | broadly effective | – | striking effect on co-operative cultures | all anaerobic enrichments demonstrated resistance | –
5 | piperacillin-tazobactam | some isolates were resistant | largely predictive of community failure | – | – | –
6 | C[C@H]1[C@H](NC(=O)/C(=N\OC(C)(C)C(=O)O)c2csc(N)n2)C(=O)N1S(=O)(=O)O [aztreonam] | some isolates were resistant | largely predictive of community failure | – | variable efficacy | growth of two aztreonam-resistant P. aeruginosa isolates in co-culture ([2]; co-culture with aztreonam-susceptible anaerobic mutualists, aztreonam 100 μg/mL): restricted in co-culture
